According to PubChem BioAssay (NCI):
Where “and” joins values, the source holds several entries; their conditions need not be identical. Equal entries are not always repeated.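 Following 48 hours of exposure in 96-well plates, responses at five concentrations were used to interpolate endpoints linearly. GI50 = concentration required for 50% inhibition of growth. TGI denotes the concentration required for complete inhibition of growth.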

Legend:
Experiment in all cases: inhibition of tumour cell growth, NCI panel, 48 h
786-0 renal = system: 786-0 renal
BT-549 breast = system: BT-549 breast
MDA-MB-231 breast = system: MDA-MB-231 breast
NCI-H23 lung = system: NCI-H23 lung
NCI-H522 lung = system: NCI-H522 lung
OVCAR-4 ovarian = system: OVCAR-4 ovarian
RXF 393 renal = system: RXF 393 renal
SF-539 CNS = system: SF-539 CNS
SK-MEL-28 melanoma = system: SK-MEL-28 melanoma
SR leukemia = system: SR leukemia

N#C/C(=C/N1CCN(C(=O)c2ccco2)C1=S)C(=O)c1ccccc1
GI50 (786-0 renal): 16.1 µM | TGI (786-0 renal): 44.6 µM | GI50 (BT-549 breast): 7.77 µM | TGI (BT-549 breast): 32.3 µM | GI50 (MDA-MB-231 breast): 13.7 µM | TGI (MDA-MB-231 breast): 40.8 µM | GI50 (NCI-H23 lung): 15.2 µM | TGI (NCI-H23 lung): 43.5 µM | GI50 (NCI-H522 lung): 3.74 µM | TGI (NCI-H522 lung): 12.3 µM | GI50 (OVCAR-4 ovarian): 29.8 µM | TGI (OVCAR-4 ovarian): 93.2 µM | GI50 (RXF 393 renal): 4.09 µM | TGI (RXF 393 renal): 19.4 µM | GI50 (SF-539 CNS): 2.21 µM | TGI (SF-539 CNS): 5.39 µM | GI50 (SK-MEL-28 melanoma): 28 µM | TGI (SK-MEL-28 melanoma): > 100 µM | GI50 (SR leukemia): 2.84 µM | TGI (SR leukemia): > 100 µM

COc1ccc2c(O)cc3c(c2c1)[C@H](CCl)CN3C(=O)c1cc2cc(NC(=O)CCN3CCOCC3)ccc2[se]1
GI50 (786-0 renal): < 0.001 µM | TGI (786-0 renal): < 0.001 µM | GI50 (BT-549 breast): 0.00104 µM | TGI (BT-549 breast): 0.00649 µM | GI50 (MDA-MB-231 breast): < 0.001 µM | TGI (MDA-MB-231 breast): 0.105 µM | GI50 (NCI-H23 lung): < 0.001 µM | TGI (NCI-H23 lung): 0.00121 µM | GI50 (NCI-H522 lung): < 0.001 µM | TGI (NCI-H522 lung): 0.0298 µM | GI50 (OVCAR-4 ovarian): < 0.001 µM | TGI (OVCAR-4 ovarian): 0.783 µM | GI50 (RXF 393 renal): < 0.001 µM | TGI (RXF 393 renal): < 0.001 µM | GI50 (SF-539 CNS): < 0.001 µM | TGI (SF-539 CNS): 0.00264 µM | GI50 (SK-MEL-28 melanoma): < 0.001 µM | TGI (SK-MEL-28 melanoma): < 0.001 µM | GI50 (SR leukemia): < 0.001 µM | TGI (SR leukemia): > 10 µM

CCn1c(CO)nn(-c2cc(O[C@@H](C)C(F)(F)F)c(C(=O)Nc3c(F)cccc3Cl)cc2F)c1=O
GI50 (786-0 renal): < 0.0197 µM | TGI (786-0 renal): > 78 µM | TGI (BT-549 breast): > 100 µM | GI50 (MDA-MB-231 breast): > 20.1 µM | TGI (MDA-MB-231 breast): > 100 µM | GI50 (NCI-H23 lung): < 0.0438 µM | TGI (NCI-H23 lung): > 100 µM | GI50 (NCI-H522 lung): < 0.01 µM | TGI (NCI-H522 lung): > 100 µM | TGI (OVCAR-4 ovarian): > 100 µM | TGI (RXF 393 renal): > 100 µM | GI50 (SF-539 CNS): < 0.01 µM | TGI (SF-539 CNS): > 100 µM | GI50 (SK-MEL-28 melanoma): > 24.4 µM | TGI (SK-MEL-28 melanoma): > 100 µM | GI50 (SR leukemia): < 0.01 µM | TGI (SR leukemia): > 43.1 µM

O=[N+]([O-])c1ccc2c(c1)C(c1ccccc1Cl)=Nc1cn[nH]c1N2
GI50 (786-0 renal): 11.8 µM | TGI (786-0 renal): > 25 µM | GI50 (BT-549 breast): 16.2 µM | TGI (BT-549 breast): > 25 µM | GI50 (MDA-MB-231 breast): 14.6 µM | TGI (MDA-MB-231 breast): > 25 µM | GI50 (NCI-H23 lung): > 25 µM | TGI (NCI-H23 lung): > 25 µM | GI50 (NCI-H522 lung): 15.5 µM | TGI (NCI-H522 lung): > 25 µM | GI50 (OVCAR-4 ovarian): 12.5 µM | TGI (OVCAR-4 ovarian): > 25 µM | GI50 (RXF 393 renal): 4.57 µM | TGI (RXF 393 renal): > 25 µM | GI50 (SF-539 CNS): 14.6 µM | TGI (SF-539 CNS): > 25 µM | GI50 (SK-MEL-28 melanoma): > 23.7 µM | TGI (SK-MEL-28 melanoma): > 25 µM | GI50 (SR leukemia): 15.2 µM | TGI (SR leukemia): > 25 µM

O=C(/C=C/c1cc(CN2CCOCC2)c(O)c2ncccc12)c1cc(CN2CCOCC2)c(O)c2ncccc12
GI50 (786-0 renal): 0.0802 µM | TGI (786-0 renal): > 32.6 µM | GI50 (BT-549 breast): 0.0287 µM | TGI (BT-549 breast): 16.9 µM | GI50 (MDA-MB-231 breast): 0.145 µM | TGI (MDA-MB-231 breast): > 100 µM | GI50 (NCI-H23 lung): 0.0586 µM | TGI (NCI-H23 lung): > 100 µM | GI50 (NCI-H522 lung): 0.0208 µM | TGI (NCI-H522 lung): > 53.7 µM | GI50 (OVCAR-4 ovarian): 0.0804 µM | TGI (OVCAR-4 ovarian): > 100 µM | GI50 (RXF 393 renal): 0.14 µM | TGI (RXF 393 renal): 14.3 µM | GI50 (SF-539 CNS): 0.0433 µM | TGI (SF-539 CNS): 23.6 µM | GI50 (SK-MEL-28 melanoma): 0.594 µM | TGI (SK-MEL-28 melanoma): > 100 µM | GI50 (SR leukemia): 0.0463 µM | TGI (SR leukemia): > 100 µM

Cc1cc(S(=O)(=O)N/N=C(\Sc2cc(Cl)c(C)cc2S(N)(=O)=O)c2ccc(Cl)cc2)c(Cl)cc1Cl
GI50 (786-0 renal): 42.1 µM | TGI (786-0 renal): > 100 µM | GI50 (BT-549 breast): 61.8 µM | TGI (BT-549 breast): > 100 µM | GI50 (MDA-MB-231 breast): 34.2 µM | TGI (MDA-MB-231 breast): > 100 µM | GI50 (NCI-H23 lung): 26.7 µM | TGI (NCI-H23 lung): 67.9 µM | GI50 (NCI-H522 lung): 72.7 µM | TGI (NCI-H522 lung): > 100 µM | GI50 (OVCAR-4 ovarian): 63.1 µM | TGI (OVCAR-4 ovarian): > 100 µM | GI50 (RXF 393 renal): 54.8 µM | TGI (RXF 393 renal): > 100 µM | GI50 (SF-539 CNS): 28.6 µM | TGI (SF-539 CNS): 61.5 µM | GI50 (SK-MEL-28 melanoma): > 100 µM | TGI (SK-MEL-28 melanoma): > 100 µM | GI50 (SR leukemia): 64.2 µM | TGI (SR leukemia): > 100 µM

CC(C)S(=O)(=O)c1ccccc1Nc1nc(Nc2cccc(NC(=O)CN)c2)ncc1Cl
GI50 (786-0 renal): 0.235 µM | TGI (786-0 renal): 2.57 µM | GI50 (BT-549 breast): 0.149 µM | TGI (BT-549 breast): 1 µM | GI50 (MDA-MB-231 breast): 0.239 µM | TGI (MDA-MB-231 breast): 3.97 µM | GI50 (NCI-H23 lung): 0.208 µM | TGI (NCI-H23 lung): 1.03 µM | GI50 (NCI-H522 lung): 1.33 µM | TGI (NCI-H522 lung): 4.08 µM | GI50 (OVCAR-4 ovarian): 0.336 µM | TGI (OVCAR-4 ovarian): 5.05 µM | GI50 (RXF 393 renal): 0.0565 µM | TGI (RXF 393 renal): 0.302 µM | GI50 (SF-539 CNS): 0.0455 µM | TGI (SF-539 CNS): 0.334 µM | GI50 (SK-MEL-28 melanoma): 0.406 µM | TGI (SK-MEL-28 melanoma): 2.25 µM | GI50 (SR leukemia): 0.0101 µM | TGI (SR leukemia): 0.423 µM

COCCOc1cnc2ccn([C@H](C)c3nnc4c(F)cc(-c5cnn(C)c5)cn34)c(=O)c2c1
GI50 (786-0 renal): > 100 µM | TGI (786-0 renal): > 100 µM | GI50 (BT-549 breast): > 100 µM | TGI (BT-549 breast): > 100 µM | GI50 (MDA-MB-231 breast): > 100 µM | TGI (MDA-MB-231 breast): > 100 µM | GI50 (NCI-H23 lung): > 100 µM | TGI (NCI-H23 lung): > 100 µM | GI50 (NCI-H522 lung): > 100 µM | TGI (NCI-H522 lung): > 100 µM | GI50 (OVCAR-4 ovarian): 52 µM | TGI (OVCAR-4 ovarian): > 100 µM | GI50 (RXF 393 renal): > 100 µM | TGI (RXF 393 renal): > 100 µM | GI50 (SF-539 CNS): > 100 µM | TGI (SF-539 CNS): > 100 µM | GI50 (SK-MEL-28 melanoma): > 100 µM | TGI (SK-MEL-28 melanoma): > 100 µM | GI50 (SR leukemia): > 100 µM | TGI (SR leukemia): > 100 µM

O=c1[nH]cnc2cccc(Cl)c12
TGI (786-0 renal): > 100 µM | TGI (BT-549 breast): > 100 µM | TGI (MDA-MB-231 breast): > 100 µM | TGI (NCI-H23 lung): > 100 µM | TGI (NCI-H522 lung): > 100 µM | TGI (OVCAR-4 ovarian): > 100 µM | TGI (RXF 393 renal): > 100 µM | TGI (SF-539 CNS): > 100 µM | TGI (SK-MEL-28 melanoma): > 100 µM | TGI (SR leukemia): > 100 µM

COc1cc2c(c(OC)n1)[C@]1(O)[C@H](O)[C@H](CN(C)C)[C@@H](c3ccccc3)[C@]1(c1ccc(C#N)cc1)O2
GI50 (786-0 renal): 0.0443 µM and 0.0313 µM | TGI (786-0 renal): 7.37 µM and 4.06 µM | GI50 (BT-549 breast): 0.0451 µM and 0.0737 µM | TGI (BT-549 breast): 0.825 µM and 2.62 µM | GI50 (MDA-MB-231 breast): 0.0336 µM and 0.0242 µM | TGI (MDA-MB-231 breast): 1.72 µM and 1.48 µM | GI50 (NCI-H23 lung): 0.0182 µM and 0.0111 µM | TGI (NCI-H23 lung): 1.76 µM and 1.03 µM | GI50 (NCI-H522 lung): 0.0257 µM and 0.0212 µM | TGI (NCI-H522 lung): 1.15 µM and 2.24 µM | GI50 (OVCAR-4 ovarian): 0.0371 µM and 0.0251 µM | TGI (OVCAR-4 ovarian): 3.72 µM and 5.27 µM | GI50 (RXF 393 renal): 0.0359 µM and 0.0195 µM | TGI (RXF 393 renal): 0.502 µM and 0.103 µM | GI50 (SF-539 CNS): 0.0142 µM and < 0.0116 µM | TGI (SF-539 CNS): 0.0963 µM and 0.122 µM | GI50 (SK-MEL-28 melanoma): 0.0334 µM and 0.0313 µM | TGI (SK-MEL-28 melanoma): 0.813 µM and 1.56 µM | GI50 (SR leukemia): 0.0246 µM and < 0.0114 µM | TGI (SR leukemia): 4.48 µM

Oc1cn(-c2ccc(Cl)cc2)nc1-c1n[nH]c(=S)n1C1CCCCC1
GI50 (786-0 renal): 1.82 µM | TGI (786-0 renal): > 100 µM | GI50 (BT-549 breast): 9.51 µM | TGI (BT-549 breast): > 100 µM | GI50 (MDA-MB-231 breast): 2.22 µM | TGI (MDA-MB-231 breast): > 90.7 µM | GI50 (NCI-H23 lung): 0.322 µM | TGI (NCI-H23 lung): 1.98 µM | GI50 (NCI-H522 lung): 0.373 µM | TGI (NCI-H522 lung): > 100 µM | GI50 (OVCAR-4 ovarian): 31.8 µM | TGI (OVCAR-4 ovarian): > 100 µM | GI50 (RXF 393 renal): > 24.6 µM | TGI (RXF 393 renal): > 100 µM | GI50 (SF-539 CNS): 0.312 µM | TGI (SF-539 CNS): 1.11 µM | GI50 (SK-MEL-28 melanoma): 0.639 µM | TGI (SK-MEL-28 melanoma): > 100 µM | GI50 (SR leukemia): < 0.0413 µM | TGI (SR leukemia): > 100 µM
